Results reported in PubChem BioAssay AID1918994 (Molecular Pharmacology Branch, DTP, NCI, 2023).

System: 292921-168-R-J2-PDC complex spheroid growth
Assay: Anticancer human tumor 292921-168-R-J2-PDC patient-derived pancreatic carcinoma cell line growth inhibition [AhR]
Settings: for IC50: curve of first compound; for viability, T/C: stronger effect = lower value
Outline: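 Agents were dosed in half-log steps down from roughly clinical Cmax, or from 10 microM where Cmax was unknown, alone and with AhR antagonists. Read-out: percent test/control growth of tumor spheroids containing HUVEC and MSC stromal cells.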

[1] = second compound 0.1 µM, first compound 0.0316 µM
[2] = second compound 0.1 µM, first compound 0.1 µM
[3] = second compound 0.1 µM, first compound 0.316 µM
[4] = second compound 0.1 µM, first compound 1 µM
[5] = second compound 0.316 µM, first compound 0.0316 µM
[6] = second compound 0.316 µM, first compound 0.1 µM
[7] = second compound 0.316 µM, first compound 0.316 µM
[8] = second compound 0.316 µM, first compound 1 µM
[9] = second compound 1 µM, first compound 0.0316 µM
[10] = second compound 1 µM, first compound 0.1 µM
[11] = second compound 1 µM, first compound 0.316 µM
[12] = second compound 1 µM, first compound 1 µM
[13] = second compound 3.16 µM, first compound 0.0316 µM
[14] = second compound 3.16 µM, first compound 0.1 µM
[15] = second compound 3.16 µM, first compound 0.316 µM
[16] = second compound 3.16 µM, first compound 1 µM
[17] = second compound 10 µM, first compound 0.0316 µM
[18] = second compound 10 µM, first compound 0.1 µM
[19] = second compound 10 µM, first compound 0.316 µM
[20] = second compound 10 µM, first compound 1 µM
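Note: spheroids exposed to compounds for seven days after three days of growth.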

Row | IC50 (second compound 0.1 µM) [nM] | IC50 (second compound 0.316 µM) [nM] | IC50 (second compound 1 µM) [nM] | IC50 (second compound 3.16 µM) [nM] | IC50 (second compound 10 µM) [nM] | SMILES | viability, T/C [1] [%] | viability, T/C [2] [%] | viability, T/C [3] [%] | viability, T/C [4] [%] | viability, T/C [5] [%] | viability, T/C [6] [%] | viability, T/C [7] [%] | viability, T/C [8] [%] | viability, T/C [9] [%] | viability, T/C [10] [%] | viability, T/C [11] [%] | viability, T/C [12] [%] | viability, T/C [13] [%] | viability, T/C [14] [%] | viability, T/C [15] [%] | other results
1 | 43.3 | 46.4 | 33 | 27.9 | 10.3 | CC1COCCN1c1cc(-c2ccnn2C)c2ccnc(-c3ccn[nH]3)c2n1 (stereo not given) + CC(CO)NC(=O)c1cc(-c2ccc(Cl)cc2)nn(-c2cnn(C)c2)c1=O | 56.1 | 31.4 | 22.7 | 19.7 | 56.6 | 35.3 | 22 | 17.8 | 49 | 29.1 | 21.5 | 17.3 | 46.9 | 24.9 | 17.7 | viability, T/C (second compound 0.1 µM, first compound 0.00316 µM): 93.5%; viability, T/C (second compound 0.1 µM, first compound 0.01 µM): 91%; viability, T/C (second compound 0.316 µM, first compound 0.00316 µM): 96.8%; viability, T/C (second compound 0.316 µM, first compound 0.01 µM): 84.1%; viability, T/C (second compound 1 µM, first compound 0.00316 µM): 100%; viability, T/C (second compound 1 µM, first compound 0.01 µM): 90.8%; viability, T/C (second compound 3.16 µM, first compound 0.00316 µM): 86.6%; viability, T/C (second compound 3.16 µM, first compound 0.01 µM): 75.2%; viability, T/C [16]: 17.1%; viability, T/C (second compound 10 µM, first compound 0.00316 µM): 62.8%; viability, T/C (second compound 10 µM, first compound 0.01 µM): 51%; viability, T/C [17]: 26.8%; viability, T/C [18]: 19.7%; viability, T/C [19]: 15.3%; viability, T/C [20]: 15.8%
2 | 3200 | 3000 | 3620 | 2940 | 1740 | CC1COCCN1c1cc(C2(S(C)(=N)=O)CC2)nc(-c2ccnc3[nH]ccc23)n1 (stereo not given) + CC(CO)NC(=O)c1cc(-c2ccc(Cl)cc2)nn(-c2cnn(C)c2)c1=O | 106 | 114 | 105 | 82.9 | 107 | 104 | 105 | 87.3 | 114 | 107 | 99.5 | 89.4 | 102 | 88.1 | 94.9 | viability, T/C (second compound 0.1 µM, first compound 3.16 µM): 51%; viability, T/C (second compound 0.1 µM, first compound 10 µM): 34.4%; viability, T/C (second compound 0.316 µM, first compound 3.16 µM): 48.4%; viability, T/C (second compound 0.316 µM, first compound 10 µM): 31.9%; viability, T/C (second compound 1 µM, first compound 3.16 µM): 50.8%; viability, T/C (second compound 1 µM, first compound 10 µM): 31.2%; viability, T/C [16]: 84.3%; viability, T/C (second compound 3.16 µM, first compound 3.16 µM): 47.7%; viability, T/C (second compound 3.16 µM, first compound 10 µM): 28.4%; viability, T/C [17]: 78.7%; viability, T/C [18]: 74.2%; viability, T/C [19]: 80.8%; viability, T/C [20]: 63.9%; viability, T/C (second compound 10 µM, first compound 3.16 µM): 34.7%; viability, T/C (second compound 10 µM, first compound 10 µM): 25.4%
